# Values joined by “and” are separate entries in the source; they are usually repeats but may differ in a detail not shown here. Equal values may be shown once.
# Legend:
# [1] = tested on: rabbit platelet aggregation by PAF; assay: Inhibitory activity on rabbit platelet aggregation by PAF; assay type: cell-based; conditions: Oryctolagus cuniculus, PAF 1×10^-8 M, read-out: rate of inhibition of rabbit platelet aggregation by PAF
# PAF-induced hypotension = assay: Inhibitory activity against PAF-induced hypotension in rats; assay type: in vivo, rat (male Spraque-Dawley); conditions: PAF 0.3 μg/kg i.v.
# Procedure: Inhibitory activity against PAF-induced hypotension in rats
# Male Spraque-Dawley rats, with a body weight of about 400 g, were used under pentobarbital sodium (50 mg/kg, intravenous administration) anesthesia. A cannula was inserted into the femoral artery and secured in position for measurement of blood pressure and another cannula into the femoral vein for administration of a solution of the drug. The blood pressure was measured via a pressure transducer and recorded on a polygraph. First, 0.3 μg/kg of PAF was administered intravenously and the hypotensive response was recorded.
# The inhibitory activity against PAF-induced hypotension was estimated from the rate of PAF-induced hypotensive response (Δ mmHg) after the drug administration to hypotensive response (Δ mmHg) by PAF before the drug administration.
# [2] = tested on: endotoxin-induced hypotension; assay: Anti-endotoxin shock activity in rats; assay type: in vivo, rat (male Spraque-Dawley); conditions: endotoxin 15 mg/kg i.v., one minute after
# Procedure: Anti-endotoxin shock activity in rats
# Male Spraque-Dawley rats weighting about 400 g were used under pentobarbital sodium (50 mg/kg, i.v.) anesthesia. A cannula was inserted into the femoral artery and secured in position for measurement of blood pressure and another cannula into femoral vein for administration of a solution of the drug. The blood pressure was measured via a pressure transducer and recorded on a polygraph. First, a suspension of endotoxin (15 mg/kg) [Lipopolysaccharide W.E. coli 0111: B4, Wako Pure Chemical] in physiological saline was administered intravenously and the maximum hypotensive response (Δ mmHg) occurring 3 to 5 minutes after administration was recorded. Simultaneously, the compound of Example 108 was dissolved in physiological saline and administered intravenously in a dose of 1 to 100 μg/kg. The restortion rate against endotoxin-induced hypotension one minute after the administration was calculated. The presence of preventive activity against endotoxin shock was judged from the strength of the restoration rate.
# HL-60 cells = assay: Effect on inducing differentiation of HL-60 cells (NBT-positive cells); assay type: cell-based, human; conditions: 6 days
# Procedure: Assay of the effects on inducing differentiation of HL-60 cells (human promyelocytic leukemia cells) and Neuro-2a cells (mouse neuroblastoma cells): RPMI-1640 medium (Flow Laboratories, Inc.) supplemented with 20% fetal calf serum (M.A. […] The culture was incubated at 37° C. in a 5% CO2 incubator for 6 days. […] The reaction was allowed to proceed at 37° C. for 20 minutes. The reaction was stopped by cooling with ice, and the cells were washed by means of centrifugation, followed by collecting 3-5×10^4 cells and by subjecting to centrifugation using Cytospin centrifuge to prepare a cell smear, which was fixed with methanol and stained with Kernechtrot solution. On each cell smear, the percentage of NBT-positive cells relative to live cells, […] by examination of a minimum of 200 cells, was expressed as the differentiation extent.
# Neuro-2a cells [3] = assay: Effect on morphological differentiation of neuroblastoma Neuro-2a; assay type: cell-based, mouse; conditions: three days, untreated 22
# Procedure: Assay of the effects on inducing differentiation of HL-60 cells (human promyelocytic leukemia cells) and Neuro-2a cells (mouse neuroblastoma cells):
# For Neuor-2a cells, 1×10^4 cells were inoculated into GIT medium (Daigo-eiyo Chemicals, Japan) and one day later various amounts of the compound of Example 108 were added. The cells were incubated for following three days at 37° C. in a 5% CO2 incubator.
# The percentage of cells that were morphologically similar to neurocyte with extended neurite was determined by microscopical examination of cells more than 200.
# KB cells = assay: Cell growth inhibition assay, KB; assay type: cell-based; conditions: Homo sapiens, 72 h, concentration giving T/C 50%, day 4, read-out: ED50 (the source's name)
# Procedure: (§1) 2×10^4 cells per well charged with GIT medium for KB cells (human epidermoid carcinoma cells), A549 cells (human lung carcinoma cells) and HSC-1 cells (human skin squamous carcinoma cells), and 4×10^4 cells for B16-BL6 cells (mouse melanoma cells) and 5×10^3 cells for Neuro-2a cells were inoculated. On day 1 (next day), various concentrations of the compound of Example 108 were added. On day 4, cells were suspended in a solution of trypsin-EDTA and the number of cells was counted. The ratio of cell number in treated culture to that in control culture was estimated as T/C (%) value. The concentration of the compound of Example 108 giving a value of T/C, 50% was defined as ED50.
# B16-BL6 cells = assay: Cell growth inhibition assay, B16-BL6; assay type: cell-based; conditions: Mus musculus, 72 h, concentration giving T/C 50%, day 4, read-out: ED50 (the source's name)
# Procedure: as §1
# HSC-1 cells = assay: Cell growth inhibition assay, HSC-1; assay type: cell-based; conditions: Homo sapiens, 72 h, concentration giving T/C 50%, day 4, read-out: ED50 (the source's name)
# Procedure: as §1
# A549 cells = assay: Cell growth inhibition assay, A549; assay type: cell-based; conditions: Homo sapiens, 72 h, concentration giving T/C 50%, day 4, read-out: ED50 (the source's name)
# Procedure: as §1
# Neuro-2a cells [4] = assay: Cell growth inhibition assay, Neuro-2a; assay type: cell-based; conditions: Mus musculus, N2a, 72 h, concentration giving T/C 50%, day 4, read-out: ED50 (the source's name)
# Procedure: as §1
structure (smiles),measurement,setting,value
"CCCCCCCCCCCCCCCCCCNC(=O)OCC(COC(=O)N(Cc1cccc[n+]1CC)C(C)=O)OC (stereo not drawn) [Example 108, 1-Ethyl-2-[N-acetyl-N-(3-octadecylcarbamoyloxy-2-methoxypropyloxy)carbonyl]aminomethylpyridinium chloride]",inhibition at 30 µM,[1]; test drug 3 × 10^-5 M,100%
same,inhibition at 3 µM,[1]; test drug 3 × 10^-6 M,100%
same,inhibition at 0.3 µM,[1]; test drug 3 × 10^-7 M,100%
same,Restoration rate,"PAF-induced hypotension; 0.1 mg/kg i.v., after 5 min",100%
same,Restoration rate,"PAF-induced hypotension; 0.1 mg/kg i.v., after 60 min",55%
same,Restoration rate,"PAF-induced hypotension; 1 mg/kg i.v., after 5 min",100%
same,Restoration rate,"PAF-induced hypotension; 1 mg/kg i.v., after 60 min",100%
same,Restoration rate against endotoxin-induced hypotension,"[2]; 0.01 mg/kg i.v., 2 rats, single values",100% and 59%
same,Restoration rate against endotoxin-induced hypotension,"[2]; 0.1 mg/kg i.v., 3 rats, mean ± standard error",97 ± 1%
same,Maximum differentiation extent: Optimal conc.,HL-60 cells,0.63 µg/mL
same,Emax,"HL-60 cells; Homo sapiens, HL-60, 144 h, at optimal conc., NBT-positive relative to live cells, read-out: Maximum differentiation extent: Differentiation",83%
same,% of cells with neurite,Neuro-2a cells [3]; 2.5 μg/ml,26%
same,% of cells with neurite,Neuro-2a cells [3]; 5 μg/ml,33%
same,% of cells with neurite,Neuro-2a cells [3]; 10 μg/ml,35%
same,% of cells with neurite,Neuro-2a cells [3]; 15 μg/ml,44%
same,% of cells with neurite,Neuro-2a cells [3]; 20 μg/ml,74%
same,IC50,KB cells,0.16 µg/mL
same,IC50,B16-BL6 cells,2.5 µg/mL
same,IC50,HSC-1 cells,0.63 µg/mL
same,IC50,A549 cells,0.63 µg/mL
same,IC50,Neuro-2a cells [4],5 µg/mL
